From the supplement of paper PMC13380429

How the values were obtained:
Conditions in all cases: 72 h
Caco-2 [1] = test: cell viability relative to DMSO; higher = less toxic
Calu-3 [2] = test: as above
HepG2 [3] = test: as above
U2OS [4] = test: as above
Vero E6 [5] = test: as above
Caco-2 [6] = test: relative viability EC50 (midpoint between 100% and the lowest measured viability); higher = less toxic
Calu-3 [7] = test: as above
HepG2 [8] = test: as above
U2OS [9] = test: as above
Vero E6 [10] = test: as above
Caco-2 [11] = test: drug sensitivity score (DSS) for viability; higher = more toxic; extreme values may be limits of the assay
Calu-3 [12] = test: as above
HepG2 [13] = test: as above
U2OS [14] = test: as above
Vero E6 [15] = test: as above

| SMILES | cell viability (Caco-2 [1]; 1 nM) | cell viability (Caco-2 [1]; 10 nM) | cell viability (Caco-2 [1]; 100 nM) | cell viability (Caco-2 [1]; 1000 nM) | cell viability (Caco-2 [1]; 10000 nM) | cell viability (Calu-3 [2]; 1 nM) | cell viability (Calu-3 [2]; 10 nM) | cell viability (Calu-3 [2]; 100 nM) | cell viability (Calu-3 [2]; 1000 nM) | cell viability (Calu-3 [2]; 10000 nM) | cell viability (HepG2 [3]; 1 nM) | cell viability (HepG2 [3]; 10 nM) | cell viability (HepG2 [3]; 100 nM) | cell viability (HepG2 [3]; 1000 nM) | cell viability (HepG2 [3]; 10000 nM) | cell viability (U2OS [4]; 1 nM) | cell viability (U2OS [4]; 10 nM) | cell viability (U2OS [4]; 100 nM) | cell viability (U2OS [4]; 1000 nM) | cell viability (U2OS [4]; 10000 nM) | cell viability (Vero E6 [5]; 1 nM) | cell viability (Vero E6 [5]; 10 nM) | cell viability (Vero E6 [5]; 100 nM) | cell viability (Vero E6 [5]; 1000 nM) | cell viability (Vero E6 [5]; 10000 nM) | relative viability EC50 (Caco-2 [6]) | relative viability EC50 (Calu-3 [7]) | relative viability EC50 (HepG2 [8]) | relative viability EC50 (U2OS [9]) | relative viability EC50 (Vero E6 [10]) | drug sensitivity score (Caco-2 [11]) | drug sensitivity score (Calu-3 [12]) | drug sensitivity score (HepG2 [13]) | drug sensitivity score (U2OS [14]) | drug sensitivity score (Vero E6 [15]) |
| --- | --- | --- | --- | --- | --- | --- | --- | --- | --- | --- | --- | --- | --- | --- | --- | --- | --- | --- | --- | --- | --- | --- | --- | --- | --- | --- | --- | --- | --- | --- | --- | --- | --- | --- | --- |
| COc1cc(C(=O)N(CC[C@H]2CCCN2C)C/C(C)=C/c2ccccc2F)cc(OC)c1OC (racemic) | 97.4% | 98.7% | 99.7% | 103% | 93.5% | 93.5% | 108% | 103% | 104% | 94.4% | 103% | 102% | 95.8% | 104% | 86.6% | 98.6% | 96.8% | 102% | 99.2% | 97.7% | 102% | 102% | 103% | 99.5% | 99% | > 10 µM | > 10 µM | > 10 µM | > 10 µM | > 10 µM | 0 | 0 | 0.1 | 0 | 0 |
| O=C(O)C1=C(CSc2nnnn2CS(=O)(=O)O)CS[C@@H]2[C@H](NC(=O)[C@H](O)c3ccccc3)C(=O)N12 [Cefonicid (sodium)] | 97.8% | 102% | 93.4% | 97.7% | 102% | 95.7% | 97.2% | 97.9% | 96.6% | 95.8% | 103% | 100% | 92.2% | 103% | 97.7% | 95.1% | 99.2% | 94.3% | 101% | 94.4% | 99.9% | 98.9% | 102% | 99.1% | 99.5% | > 10 µM | > 10 µM | > 10 µM | > 10 µM | > 10 µM | 0 | 0 | 0 | 0 | 0 |
| CC1(CN2CCC(n3c(=O)[nH]c4ccccc43)CC2)OCc2ccccc2-n2cccc21 (stereo not given) [zaldaride] | 99.6% | 91.6% | 101% | 88.1% | 93.1% | 86.3% | 96.1% | 101% | 84.7% | 94.5% | 94.9% | 96.4% | 86.6% | 104% | 76% | 102% | 94.6% | 98% | 95.7% | 99.1% | 98.9% | 97.7% | 98.7% | 100% | 89.9% | > 10 µM | > 10 µM | > 10 µM | > 10 µM | > 10 µM | 0 | 0 | 0.7 | 0 | 0 |
| CCN(CC)CCNC(=O)c1ccc(I)cc1 [I-BZA] | 96.9% | 95.9% | 104% | 106% | 104% | 93.3% | 101% | 96.3% | 105% | 114% | 93.9% | 101% | 98.9% | 102% | 93.1% | 99.7% | 94.7% | 98.5% | 95.8% | 101% | 91.3% | 104% | 95% | 101% | 94.8% | > 10 µM | > 10 µM | > 10 µM | > 10 µM | > 10 µM | 0 | 0 | 0 | 0 | 0 |
| O=C(NC1CCNCC1)c1n[nH]cc1NC(=O)c1c(Cl)cccc1Cl [AT-7519] | 91.4% | 93.2% | 94.2% | 104% | 33.5% | 100% | 99% | 95.9% | 83.9% | 37.5% | 111% | 99.4% | 108% | 22.5% | 9.6% | 103% | 97.6% | 100% | 100% | 7% | 99.6% | 102% | 102% | 99.6% | 96.6% | 3.46 µM | 1.53 µM | 0.509 µM | 3.19 µM | > 10 µM | 3.3 | 5.9 | 14 | 5.2 | 0 |
| CN(C)CCN1C(=O)c2cccc3cc(NC(N)=O)cc(c23)C1=O [unbs-5162] | 96.5% | 99.3% | 93.5% | 104% | 96% | 100% | 105% | 95.9% | 88.6% | 78.4% | 100% | 101% | 93.7% | 86.5% | 42.2% | 104% | 99.7% | 96.4% | 101% | 88% | 108% | 101% | 107% | 95.1% | 90.8% | > 10 µM | > 10 µM | 1.61 µM | > 10 µM | > 10 µM | 0 | 1.5 | 5.3 | 0 | 0 |
| CC1CCc2c(N3CCC(O)CC3)c(F)cc3c(=O)c(C(=O)O)cn1c23 (stereo not given) [nadifloxacin] | 104% | 92.1% | 94.7% | 114% | 96.2% | 97.6% | 96.4% | 102% | 105% | 107% | 97% | 111% | 108% | 103% | 107% | 98.9% | 97.5% | 98.6% | 96.1% | 106% | 94.5% | 100% | 97.9% | 95.7% | 106% | > 10 µM | > 10 µM | > 10 µM | > 10 µM | > 10 µM | 0 | 0 | 0 | 0 | 0 |
| O=C(O)c1ccc(N2C(=O)/C(=C/c3ccc(-c4ccc([N+](=O)[O-])cc4)o3)C=C2c2ccccc2)cc1 [4E1RCat] | 97.3% | 97.1% | 98.2% | 96.4% | 87.5% | 93.1% | 105% | 95.2% | 87.3% | 100% | 104% | 108% | 91.4% | 102% | 88.7% | 98.4% | 98.1% | 102% | 94.7% | 92.5% | 98.1% | 100% | 99% | 98.7% | 99.3% | > 10 µM | > 10 µM | > 10 µM | > 10 µM | > 10 µM | 0.2 | 0 | 0 | 0 | 0 |
| O=C(NCc1ccccn1)Nc1nnc(-c2ccco2)o1 [NK-252] | 103% | 94.6% | 103% | 91.5% | 80.7% | 104% | 99.9% | 94.2% | 103% | 107% | 104% | 97.4% | 90.4% | 77.2% | 30.6% | 103% | 101% | 105% | 99.3% | 103% | 94.5% | 104% | 104% | 103% | 101% | > 10 µM | > 10 µM | 1.47 µM | > 10 µM | > 10 µM | 1.4 | 0 | 6.5 | 0 | 0 |
| Cc1ccc(-c2ccc(C)cn2)nc1 [abametapir] | 95.9% | 86.7% | 79.8% | 87% | 93.3% | 106% | 92.1% | 95.6% | 92.6% | 96.3% | 119% | 110% | 100% | 103% | 98.9% | 98.8% | 96.3% | 97.8% | 96.6% | 99% | 103% | 104% | 101% | 93.4% | 105% | > 10 µM | > 10 µM | > 10 µM | > 10 µM | > 10 µM | 0 | 0 | 0 | 0 | 0 |
| CC(C)Oc1ccc(-c2cnc3c(-c4ccnc5ccccc45)cnn3c2)cc1 [DMH1] | 108% | 93.7% | 102% | 95.9% | 95.6% | 117% | 102% | 105% | 108% | 96.4% | 104% | 103% | 100% | 96.8% | 90% | 103% | 100% | 98.4% | 94.4% | 89.8% | 95.4% | 104% | 98.2% | 104% | 104% | > 10 µM | > 10 µM | > 10 µM | > 10 µM | > 10 µM | 0 | 0 | 0 | 0 | 0 |
| Nc1nc(=O)c2sc(=O)n([C@@H]3O[C@H](CO)[C@@H](O)[C@H]3O)c2[nH]1 | 95.1% | 90.6% | 92.7% | 99.6% | 103% | 94.2% | 110% | 97% | 95.3% | 97.5% | 91.6% | 99.5% | 107% | 107% | 97.2% | 97.2% | 93.6% | 95.4% | 102% | 102% | 94.9% | 98.7% | 97% | 95.8% | 102% | > 10 µM | > 10 µM | > 10 µM | > 10 µM | > 10 µM | 0 | 0 | 0 | 0 | 0 |
| CC/C(=C(/c1ccc(/C=C/C(=O)O)cc1)c1ccc2[nH]ncc2c1)c1ccc(F)cc1Cl [GDC-0810] | 102% | 94.6% | 95% | 102% | 92.7% | 105% | 110% | 84.4% | 108% | 105% | 87.5% | 109% | 92.2% | 94.1% | 90.6% | 101% | 102% | 98.7% | 104% | 100% | 92.9% | 102% | 96.4% | 100% | 90.6% | > 10 µM | > 10 µM | > 10 µM | > 10 µM | > 10 µM | 0 | 0 | 0 | 0 | 0 |
| CCC(CC)CC1(C(=O)Nc2ccccc2SC(=O)C(C)C)CCCCC1 [dalcetrapib] | 99.9% | 97.1% | 94.3% | 93.7% | 107% | 96% | 95.4% | 103% | 90% | 97.8% | 88.6% | 103% | 88% | 98.6% | 90.2% | 96.9% | 97.1% | 108% | 98.3% | 104% | 98.4% | 99.2% | 101% | 102% | 101% | > 10 µM | > 10 µM | > 10 µM | > 10 µM | > 10 µM | 0 | 0 | 0 | 0 | 0 |
